For orientation: pIC50 means the IC50 on a negative log10 scale, so that one unit is a factor of ten.

The target of the assay is Acetyl-coenzyme A synthetase, cytoplasmic (Homo sapiens, UniProt Q9NR19). The assay is described as follows: Inhibition of N-terminal 6x-histidine tagged human ACSS2 expressed in insect cells assessed as reduction in pyrophosphate production using CoA and ATP incubated for 30 mins by pyrophosphatase coupled enzymatic assay.

pIC50: −log10 of the molar value.

Acetyl-coenzyme A synthetase, cytoplasmic, sequence (Q9NR19 whole entry): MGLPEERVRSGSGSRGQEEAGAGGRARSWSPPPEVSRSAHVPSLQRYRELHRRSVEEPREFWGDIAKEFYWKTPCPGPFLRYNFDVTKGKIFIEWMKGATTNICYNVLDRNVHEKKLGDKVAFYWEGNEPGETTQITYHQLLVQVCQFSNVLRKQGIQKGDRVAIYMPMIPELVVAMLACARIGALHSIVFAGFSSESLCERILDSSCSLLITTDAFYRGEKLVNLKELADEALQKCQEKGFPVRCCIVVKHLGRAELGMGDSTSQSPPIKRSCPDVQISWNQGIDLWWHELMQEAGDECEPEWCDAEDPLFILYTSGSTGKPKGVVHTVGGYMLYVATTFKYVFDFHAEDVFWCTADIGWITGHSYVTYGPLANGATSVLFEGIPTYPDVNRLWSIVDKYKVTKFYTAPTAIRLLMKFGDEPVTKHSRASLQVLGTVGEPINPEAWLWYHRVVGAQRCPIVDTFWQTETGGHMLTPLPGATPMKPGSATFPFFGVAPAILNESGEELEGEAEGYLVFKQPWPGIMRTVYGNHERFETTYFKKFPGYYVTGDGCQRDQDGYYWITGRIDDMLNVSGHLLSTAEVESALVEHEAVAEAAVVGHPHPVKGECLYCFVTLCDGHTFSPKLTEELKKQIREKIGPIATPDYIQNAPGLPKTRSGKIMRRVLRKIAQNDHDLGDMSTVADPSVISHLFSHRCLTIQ

Take `CCc1ccc2nc(C(O)(c3ccccc3)c3ccccc3)n(CC)c2c1`: the pIC50 was 6.00 to 6.60. For `C[C@@H](O)CNC(=O)c1ccc2nc(C(O)(c3ccc(F)cc3)c3ncccc3F)n(C)c2c1` (stereo not given in full) the value was 6.00 to 6.60. On to `C=CCC(CO)(CO)c1ccc2nc(C(O)(c3ccccc3)c3ccccc3)n(CC)c2c1`, for which the pIC50 is 6.00 to 6.60. For `CCn1c(C(O)(c2ccc(F)cc2F)c2ccc(F)cc2F)nc2ccc(C(=O)NCCO)cc21` the value was 6.00 to 6.60. With `CCn1c(C(O)(c2ccccc2)c2ccccc2)nc2ccc(Oc3ccccc3)cc21`, the pIC50 was 6.00 to 6.60.

`CCn1c(C(O)(c2ccccc2)c2ccccc2)nc2ccc(OCCOC)cc21`: the negative logarithm of the IC50 (pIC50) is below 6.00. As for `COCCn1c(C(O)(c2ccccc2)c2ccccc2)nc2ccc(C(=O)NC[C@@H](C)O)cc21`, the pIC50 was 6.00 to 6.60. For the compound `CCn1c(C(O)(c2ccccc2)c2ccccc2)nc2ccc(C(=O)NC)c(F)c21`, the pIC50 was 6.60 to 7.30.

For `Cn1cc(NC(=O)c2ccc3nc(C(O)(c4ccccc4)c4ccccc4)n(CCO)c3c2)cn1`, the pIC50 was 6.60 to 7.30. In the case of `CCn1c(C(O)(c2ccccc2)c2ccccc2)nc2cc(OCCO)ncc21`, the pIC50 is 6.60 to 7.30. For `CCn1c(C(O)(c2ccccc2)c2ccccc2)nc2ccc(C(F)(F)C#N)cc21` the value was 6.00 to 6.60; for `CCn1c(C(O)(c2ccccc2)c2ccc(F)cc2F)nc2ccc(C(=O)NC[C@@H](C)O)cc21` (stereo not given in full), 6.60 to 7.30. In the case of `CCn1c(C(O)(c2ccccc2)c2ccccc2)nc2ccc(NC(=O)OC(C)(C)C)cc21`, the negative-log IC50 (pIC50) was 6.60 to 7.30. As to `CCn1c(C(O)(c2ccccc2)c2ccccc2)nc2cc(OC)ncc21`, the pIC50 was 6.00 to 6.60. Next, `Cn1c(C(O)(c2ccccc2F)c2ccccc2F)nc2ccc(C(=O)NCCO)cc21`: 6.60 to 7.30; `CCN1CC[C@H](NC(=O)c2ccc3nc(C(O)(c4ccccc4)c4ccccc4)n(CC)c3c2)C1`: 6.00 to 6.60; `CCn1c(C(O)(c2ccccc2)c2ccccc2)nc2ccc(CNC(=O)COC)cc21`: 6.60 to 7.30.

Take `CCn1c(C(O)(c2ccccc2)c2ccccc2)nc2cccc(Cl)c21`: the pIC50 is below 6.00. Next, `CCn1c(C(O)(c2ccccc2)c2ccccc2)nc2ccc(C(=O)NCC(F)(F)C(N)=O)cc21`: 6.60 to 7.30. On to `CC(C)NC(=O)c1cccc(C(O)(c2ccccc2)c2nc3ccc(Cl)cc3n2C)c1` (stereo not given), for which the negative-log IC50 (pIC50) is 6.00 to 6.60. For `CCn1c(C(O)(c2ccccc2)c2ccccc2)nc2c(Cl)cc(C(=O)NC[C@@H](C)O)cc21` the value was 6.00 to 6.60; for `CCn1c(C(O)(c2ccccc2)c2ccccc2)nc2ccc(CNC(=O)NC)cc21`, 6.60 to 7.30.

On to `CCn1c(C(O)(c2ccccc2)c2ccccc2)nc2ccc(C)c(F)c21`, for which the pIC50 was 6.00 to 6.60.

Regarding `CCn1c(C(O)(c2ccccc2)c2ccccc2)nc2c(OC)cc(C(=O)NC[C@@H](C)O)cc21`, the pIC50 was 6.00 to 6.60. Take `CCn1c(C(O)(c2ccccc2)c2ccccc2)nc2ccc(C3CC3)cc21`: the pIC50 was 6.00 to 6.60. Regarding `CCn1c(C(O)(c2ccccc2)c2ccccc2)nc2ccc(C(=O)N3CCC3)cc21`, the negative-log IC50 (pIC50) was 6.00 to 6.60. With `COCCNC(=O)c1cccc(C(O)(c2ccccc2)c2nc3ccc(Cl)cc3n2C)c1` (stereo not given), the pIC50 was below 6.00. Regarding `Cc1ccc2nc(C(O)(c3ccccc3)c3ccn(C)c(=O)c3)n(C)c2c1` (stereo not given), the negative-log IC50 (pIC50) is below 6.00. Consider `CCn1c(C(O)(c2ccccc2)c2ccccc2)nc2ccc(OCC(=O)NC)cc21`, for which the pIC50 is 6.00 to 6.60. Next, `CCn1c(C(O)(c2ccccc2)c2ccccc2)nc2ccc(OCCN(C)C(C)=O)cc21`: below 6.00; `CCC(O)CNC(=O)c1ccc2nc(C(O)(c3ccccc3)c3ccccc3)n(CC)c2c1` (stereo not given): 6.60 to 7.30; `CCn1c(C(O)(c2ccccc2)c2ccccc2)nc2ccc(C(=O)N3CCC(N)CC3)cc21`: below 6.00. As for `CCn1c(C(O)(c2ccccc2)c2ccccc2)nc2cccc(C)c21`, the negative logarithm of the IC50 (pIC50) was below 6.00. Consider `CCn1c(C(O)(c2ccccc2)c2ccccc2)nc2ccc(C(=O)N3CCNCC3)cc21`, for which the pIC50 was below 6.00. Next, `Cn1c(C(O)(c2ccccc2)c2cccc(C(=O)NCCO)c2)nc2ccc(Cl)cc21` (stereo not given): below 6.00.
